Patent US20240115536A1, “DUAL-ACTING PHARMACEUTICAL COMPOSITIONS BASED ON SUPERSTRUCTURES OF ANGIOTENSIN RECEPTOR ANTAGONIST/BLOCKER (ARB) AND NEUTRAL ENDOPEPTIDASE (NEP) INHIBITOR” (Novartis AG, priority 2007, published 2024)
Read-outs that look alike come from different tables or passages of the source.

Columns and labels:
[1] = Dissolution testing, USP paddle method, pH 6.8 phosphate buffer, 50 rpm; assay type: physicochemical
Description: The term “dissolution” as used herein refers to a process by which a solid substance, here the active ingredients, is dispersed in molecular form in a medium. The dissolution rate of the active ingredients of the pharmaceutical oral fixed dose combination of the invention is defined by the amount of drug substance that goes in solution per unit time under standardized conditions of liquid/solid interface, temperature and solvent composition. The dissolution rate is measured by standard methods known to the person skilled in the art, see the harmonized procedure set forth in the pharmacopeias USP <711> and EP 2.9.3 and JP. For the purposes of this invention, the test is for measuring the dissolution of the individual active ingredients is performed following pharmacopeia USP <711> at pH 6.8 using a paddle stirring element at 50 rpm (rotations per minute) or alternatively at pH 4.5 using a paddle stirring element at 75 rpm as specified. The dissolution medium is preferably a buffer, typically a phosphate buffer, especially one as described in the example “Dissolution Test”.
The tablets of the Examples are tested for their dissolution in 900 ml of pH 6.8 phosphate buffer with paddles at 50 rpm.
The assembly consists of the following: a covered vessel made of glass or other inert, transparent material; a motor, and a paddle formed from a blade and shaft as the stirring element. The vessel is partially immersed in a suitable water bath of any convenient size or placed in a heating jacket. The water bath or heating jacket permits holding the temperature inside the vessels at 37±0.5° during the test and keeping the bath fluid in constant, smooth motion. No part of the assembly, including the environment in which the assembly is placed, contributes significant motion, agitation, or vibration beyond that due to the smoothly rotating stirring element. Apparatus that permits observation of the specimen and stirring element during the test is has the following dimensions and capacities: the height is 160 mm to 210 mm and its inside diameter is 98 mm to 106 mm. Its sides are flanged at the top. A fitted cover may be used to retard evaporation. The shaft is positioned so that its axis is not more than 2 mm at any point from the vertical axis of the vessel and rotates smoothly without significant wobble. The vertical center line of the blade passes through the axis of the shaft so that the bottom of the blade is flush with the bottom of the shaft. The design of the paddle is as shown in USP <711>, FIG. 2. The distance of 25±2 mm between the blade and the inside bottom of the vessel is maintained during the test. The metallic or suitably inert, rigid blade and shaft comprise a single entity. A suitable two-part detachable design may be used provided the assembly remains firmly engaged during the test. The paddle blade and shaft may be coated with a suitable inert coating. The dosage unit is allowed to sink to the bottom of the vessel before rotation of the blade is started. A small, loose piece of nonreactive material such as not more than a few turns of wire helix may be attached to dosage units that would otherwise float. Other validated sinker devices may be used.
1L of a buffered aqueous solution, adjusted to pH 6.8±0.05 (0.05 M Phosphate buffer solution obtained by dissolving 6.805 g of potassium dihydrogen phosphate and 0.896 g of sodium hydroxide in and diluting to 1000 ml with water, and adjusting the pH to 6.80±0.05 using 0.2 M sodium hydroxide or 1 M phosphoric acid; referred hereinafter as “Dissolution Medium”) is placed in the vessel of the apparatus, the apparatus is assembled, the Dissolution Medium is equilibrated to 37±0.5°, and the thermometer is removed. 1 dosage form (e.g. tablet or capsule) is placed on the apparatus, taking care to exclude air bubbles from the surface of the dosage-form unit, and immediately the apparatus is operated at a rate of 50+2 rpm. […]

[2] = Measurement of pharmacokinetic parameters, ascending single dose 5, 20, 80 mg LCZ696 vs 40 mg Diovan
Description: The study employs a two-period, parallel group, ascending single dose (5, 20, 80 mg of LCZ696 and 40 mg Diovan® (marketed formulation of valsartan), placebo controlled design with dose selection based on FDA exploratory-IND guidance. The dosages of LCZ696 are obtained by using the 5 mg and 50 mg tablets as manufactured above and employing for the 20 mg and 80 mg dose multiple tablets of 5 mg and/or 50 mg strength.
To enable comparison of the exposure to valsartan between LCZ696 and Diovan® at different dose levels, valsartan's exposure (AUC) and Cmax values are normalized to the actual amount of anhydrous salt-free- valsartan administered (normalized by mg-equivalent). The AUC0-24 values are calculated as ng·h/ml/mg-equivalent of valsartan, and the geometric means are compared.

[3] = for AUC0-24 for valsartan / Cmax for valsartan / t1/2 for valsartan / tmax for valsartan: healthy volunteers
[4] = Cohort A (5 mg LCZ696; 40 mg Diovan)
[5] = Cohort B (20 mg LCZ696; 40 mg Diovan)
[6] = Cohort C (80 mg LCZ696; 40 mg Diovan)
[7] = Combined Cohorts A-B-C (pooled data)
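Wherever AUC0-24 for valsartan is given: randomized double-blind placebo-controlled parallel-group study with ascending single doses and 14-day daily dosing cohorts, pharmacokinetics measured in healthy volunteers.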
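Wherever Cmax for valsartan is given: randomized double-blind placebo-controlled parallel-group study with ascending single doses and 14-day daily dosing cohorts, pharmacokinetics measured in healthy volunteers.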
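Wherever accumulation of all analytes is given: randomized double-blind placebo-controlled parallel-group study with ascending single doses and 14-day daily dosing cohorts, pharmacokinetics measured in healthy volunteers.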
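Wherever t1/2 for valsartan is given: randomized double-blind placebo-controlled parallel-group study with ascending single doses and 14-day daily dosing cohorts, pharmacokinetics measured in healthy volunteers.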

CCCCC(=O)N(Cc1ccc(-c2ccccc2-c2nn[n-]n2)cc1)[C@H](C(=O)[O-])C(C)C.CCOC(=O)[C@H](C)C[C@@H](Cc1ccc(-c2ccccc2)cc1)NC(=O)CCC(=O)[O-].[Na+].[Na+].[Na+] [LCZ696, trisodium [3-((1S,3R)-1-biphenyl-4-ylmethyl-3-ethoxycarbonyl-1-butylcarbamoyl) propionate-(S)-3′-methyl-2′-(pentanoyl{2″-(tetrazol-5-ylate)biphenyl-4′-ylmethyl}amino)butyrate]hemipentahydrate]
mean valsartan free acid released ([1]; about 100 mg per unit dosage form, after 10 min): about 50%
mean valsartan free acid released ([1]; about 100 mg per unit dosage form, after 20 min): about 85%
mean valsartan free acid released ([1]; about 100 mg per unit dosage form, after 30 min): about 95%
mean valsartan free acid released ([1]; about 200 mg per unit dosage form, after 10 min): about 50%
mean valsartan free acid released ([1]; about 200 mg per unit dosage form, after 20 min): about 85%
mean valsartan free acid released ([1]; about 200 mg per unit dosage form, after 30 min): about 95%
mean valsartan free acid released ([1]; about 400 mg per unit dosage form, after 10 min): about 40%
mean valsartan free acid released ([1]; about 400 mg per unit dosage form, after 20 min): about 70%
mean valsartan free acid released ([1]; about 400 mg per unit dosage form, after 30 min): about 90%
dose linearity of valsartan exposures ([2]; 5, 20, 80 mg LCZ696 single dose): dose linear
AUC0-24, dose-normalized, geometric mean, valsartan [2, 4]: 364 ng * h/ml/mg-equivalent
AUC0-24 ratio LCZ696/Diovan [2, 4]: 1.81
AUC0-inf ratio LCZ696/Diovan [2, 4]: 1.81
AUC0-inf, dose-normalized, geometric mean, valsartan [2, 4]: 372 ng * h/ml/mg-equivalent
Cmax ratio LCZ696/Diovan [2, 4]: 2.09
Cmax, dose-normalized, geometric mean, valsartan [2, 4]: 56 ng/ml/mg-equivalent
AUC0-24, dose-normalized, geometric mean, valsartan [2, 5]: 280 ng * h/ml/mg-equivalent
AUC0-24 ratio LCZ696/Diovan [2, 5]: 1.38
AUC0-inf ratio LCZ696/Diovan [2, 5]: 1.38
AUC0-inf, dose-normalized, geometric mean, valsartan [2, 5]: 284 ng * h/ml/mg-equivalent
Cmax ratio LCZ696/Diovan [2, 5]: 1.69
Cmax, dose-normalized, geometric mean, valsartan [2, 5]: 44 ng/ml/mg-equivalent
AUC0-24, dose-normalized, geometric mean, valsartan [2, 6]: 244 ng * h/ml/mg-equivalent
AUC0-24 ratio LCZ696/Diovan [2, 6]: 1.67
AUC0-inf ratio LCZ696/Diovan [2, 6]: 1.64
AUC0-inf, dose-normalized, geometric mean, valsartan [2, 6]: 245 ng * h/ml/mg-equivalent
Cmax ratio LCZ696/Diovan [2, 6]: 2.1
Cmax, dose-normalized, geometric mean, valsartan [2, 6]: 43 ng/ml/mg-equivalent
AUC0-24, dose-normalized, geometric mean, valsartan [2, 7]: 292 ng * h/ml/mg-equivalent
AUC0-24 ratio LCZ696/Diovan [2, 7]: 1.61
AUC0-inf ratio LCZ696/Diovan [2, 7]: 1.6
AUC0-inf, dose-normalized, geometric mean, valsartan [2, 7]: 296 ng * h/ml/mg-equivalent
Cmax ratio LCZ696/Diovan [2, 7]: 1.95
Cmax, dose-normalized, geometric mean, valsartan [2, 7]: 47 ng/ml/mg-equivalent
tmax of valsartan free acid ([2]; oral administration): 1.8 ± 0.3 h
enhanced oral bioavailability of valsartan free acid versus Diovan formulation ([2]; oral, analyte valsartan free acid, listed as therapeutic agent): 1.6 fold
tmax for valsartan (mean) ([2]; single dose, range of cohort means): 1.3 to 1.8 h
ratio of geometric means for AUC, LCZ696/Diovan ([2]; valsartan, dose-equivalent normalized, pooled cohorts): 161%
AUC0-24 for valsartan ([3]; 50 mg daily for 14 days): 6935 ng·h/mL
Cmax for valsartan ([3]; 50 mg daily for 14 days): 1233 ng/mL
t1/2 for valsartan ([3]; 50 mg daily for 14 days): 15.2 h
tmax for valsartan ([3]; 50 mg daily for 14 days): 1.6 h
AUC0-24 for valsartan ([3]; 200 mg daily for 14 days): 21079 ng·h/mL
Cmax for valsartan ([3]; 200 mg daily for 14 days): 3990 ng/mL
t1/2 for valsartan ([3]; 200 mg daily for 14 days): 22.1 h
tmax for valsartan ([3]; 200 mg daily for 14 days): 1.8 h
AUC0-24 for valsartan ([3]; 600 mg daily for 14 days): 58876 ng·h/mL
Cmax for valsartan ([3]; 600 mg daily for 14 days): 8563 ng/mL
t1/2 for valsartan ([3]; 600 mg daily for 14 days): 22.6 h
tmax for valsartan ([3]; 600 mg daily for 14 days): 2.2 h
AUC0-24 for valsartan ([3]; 900 mg daily for 14 days): 54920 ng·h/mL
Cmax for valsartan ([3]; 900 mg daily for 14 days): 8960 ng/mL
t1/2 for valsartan ([3]; 900 mg daily for 14 days): 15.0 h
tmax for valsartan ([3]; 900 mg daily for 14 days): 4.9 h
accumulation of all analytes ([3]; 50-900 mg LCZ696 once daily for 14 days): Minimal accumulation
AUC0-24 for valsartan ([3]; single dose 200 mg): 16970 ng·h/mL
Cmax for valsartan ([3]; single dose 200 mg): 3309 ng/mL
t1/2 for valsartan ([3]; single dose 200 mg): 11.7 h
tmax for valsartan ([3]; single dose 200 mg): 1.7 h
AUC0-24 for valsartan ([3]; single dose 600 mg): 40645 ng·h/mL
Cmax for valsartan ([3]; single dose 600 mg): 7269 ng/mL
t1/2 for valsartan ([3]; single dose 600 mg): 16.6 h
tmax for valsartan ([3]; single dose 600 mg): 1.9 h
AUC0-24 for valsartan ([3]; single dose 900 mg): 53568 ng·h/mL
Cmax for valsartan ([3]; single dose 900 mg): 8374 ng/mL
t1/2 for valsartan ([3]; single dose 900 mg): 14.9 h
tmax for valsartan ([3]; single dose 900 mg): 2.2 h
AUC0-24 for valsartan ([3]; single dose 1200 mg): 60118 ng·h/mL
Cmax for valsartan ([3]; single dose 1200 mg): 7448 ng/mL
t1/2 for valsartan ([3]; single dose 1200 mg): 8.9 h
tmax for valsartan ([3]; single dose 1200 mg): 2.2 h
